Data published in the NIST ThermoML archive (doi:10.1021/acs.jced.6b01013).

Experiment: xn = mol fraction of the nth substance listed
Details: 100 kPa, Liquid, Pycnometric method

CCNCC.Cl [diethylammonium chloride] + COc1ccccc1O
mass density [kg/m3]
Details | 293.15 K | 303.15 K | 313.15 K | 323.15 K
x2 = 0.75 | 1095.4 | 1093.1 | 1083.7 | 1075.8
x2 = 0.8 | 1102.4 | 1098.3 | 1089.8 | 1084.1
x2 = 0.83 | 1106.1 | 1103.5 | 1093.7 | 1083.5

CC(=O)OCC[N+](C)(C)C.[Cl-] [acetylcholine chloride] + COc1ccccc1O
mass density [kg/m3]
Details | 293.15 K | 303.15 K | 313.15 K | 323.15 K
x2 = 0.75 | 1149.6 | 1146.1 | 1139.8 | 1133.8
x2 = 0.8 | 1149.3 | 1144.8 | 1138.1 | 1131.7
x2 = 0.83 | 1152.7 | 1148.1 | 1142.5 | 1135.1

COc1ccccc1O [2-methoxyphenol] + C[N+](C)(C)CCO.[Cl-]
mass density [kg/m3]
Details | 293.15 K | 303.15 K | 313.15 K | 323.15 K
x1 = 0.75 | 1153.3 | 1147.5 | 1141.2 | 1134.1
x1 = 0.8 | 1155.6 | 1147.7 | 1140.6 | 1132.4
x1 = 0.83 | 1149.7 | 1143.4 | 1136.2 | 1128
